{"source": "patent US4704403A", "about": "“3-(2,2,2-trisubstituted hydrazinium) propionates” (priority 1983, dated 1987)", "key": {"[1]": {"tested_on": "hemodynamic effects of neoepinephrine", "assay": "Effect on vegetative responses: neoepinephrine", "assay_type": "in vivo, cats", "conditions": "neoepinephrine 0.2 μg/kg", "description": "(§1) The effect of the compounds according to the present invention on the arterial pressure and vegetative responses has been studied in acute experiments on cats with a mass of 2.8-4.0 kg narcotized by α-glucochloralose (90 mg/kg) and urethane (100 mg/kg intraperitoneally).\n(§2) The arterial pressure in the common carotid artery, breathing and electrocardiogram of the second standard lead were recorded.\n(§3) The effect of the compounds according to the present invention on hemodynamic effects of acetylcholine (0.1 μg/kg) neoepinephrine (0.2 μg/kg), noradrenaline (1 μg/kg) and histamine (1.5 μg/kg) was also studied. In some experiments instead of neoepinephrine and noradrenaline adrenaline was used (1 μg/kg). The peripheral part of the vagus nerve was irritated by supromaximum square pulses of the frequency of 30 Hz and duration of 0.1 ms."}, "[2]": {"tested_on": "spontaneously hypertensive rats of the Akamoto-Aoki line", "assay": "Systolic arterial pressure of spontaneously hypertensive rats upon a repeated peroral administration", "assay_type": "in vivo", "description": "Thus, after a four-days course of administration (once a day, per os) of the compounds according to the present invention an essential reduction of the arterial pressure in the test animals is observed which is not returned to the initial level even an expiration of four days after discontinuation of the preparation administration, whereas the hypotensive effect of nifedipine is manifested for only 8 hours."}, "white mice": {"tested_on": "white mice", "assay": "Acute toxicity upon intraperitoneal administration to white mice", "assay_type": "in vivo", "conditions": "i.p.", "description": "(§4) The acute toxicity of the compounds according to the present invention was studied on white mice of both sexes with a mass of 20-25 g. A saturated aqueous solution of the compounds or a suspension in Tween-80 was administered to the animals intraperitoneally. The observation over the animals was carried out for 14 days. The results obtained were processed following the Litchfield-Wilkoxon method. As it follows from the data shown in Table 5 hereinbelow, the studied compounds have a very low acute toxicity, thus providing a large spectrum of the therapeutic effect."}, "[3]": {"assay": "Acute toxicity upon intraperitoneal administration to white mice", "assay_type": "in vivo", "conditions": "mouse, in vivo, ip, 14 days observation, average values with confidential limits at P=0.05", "description": "as §4"}, "[4]": {"tested_on": "arrhythmia caused by introduction of calcium chloride", "assay": "Antiarrhythmic activity on the model of arrhythmia caused by calcium chloride (antagonism towards calcium)", "assay_type": "in vivo, mice", "conditions": "for Dose of calcium chloride causing arrhythmia: control 85.0; for Dose of calcium chloride causing heart arrest: control 100.0", "procedure": "In experiments on white mice with a mass of 18-25 g narcotized with urethane an electrocardiogram was recorded in the second standard lead. A 2% solution of calcium chloride was introduced into the tail vein at a constant rate (0.01 ml for 2 seconds). The dose of calcium chloride causing arrhythmia and the dose causing heart arrest were determined. In experimental groups the test compounds were administered 20-40 minutes prior to the beginning of the experiment intraperitoneally."}, "[5]": {"tested_on": "spontaneously hypertensive rats of the Akamoto-Aoki line", "assay": "Hypotensive activity on spontaneously hypertensive rats at a single peroral administration", "assay_type": "in vivo", "conditions": "for Systolic arterial pressure: ethyl 40 mg/kg (initial 198), allyl 50 mg/kg (initial 184), benzyl 40 mg/kg (initial 196); for Systolic arterial pressure, percent in parentheses (decrease from initial): ethyl 40, allyl 50, benzyl 40 mg/kg"}, "[6]": {"tested_on": "hypertensive male rats of the Akamoto-Aoki line", "assay": "Variation of arterial pressure upon intraperitoneal administration to hypertensive rats", "assay_type": "in vivo", "description": "The study of hypotensive properties of the compounds of this invention has been carried out of hypertensive male rats of the Akamoto-Aoki line aged 25-30 weeks. The animals were divided into groups (7-10 rats in each) and for 2 weeks before the beginning of the experiment they were subjected to an every-day training for adaptation to the unit for measurements of the arterial pressure. The systolic and diastolic arterial pressure were measured indirectly on the tail artery. The level of the arterial pressure prior to administration of the test compounds was measured by way of a triple determination thereof--2 days, one day and right before the administration of the preparation. The compounds were administered intraperitoneally in the form of a 2.5% aqueous solution or a 2.5% suspension in Twin-80 in the dose of 50 mg/kg. The measurement of the arterial pressure was effected 30 minutes, 1, 2, 3 and 4 hours and in some cases 24 hours after the administration of the preparation. For a number of compounds featuring a high efficiency, also determined was the dose causing reduction of the arterial pressure by 30% as compared with the starting level (ED30). The statistical processing of the data obtained was carried out using the Student certainty criterion."}, "Angiotension": {"tested_on": "Angiotension", "assay": "Effect on vegetative responses: angiotensin", "assay_type": "in vivo, cats", "conditions": "dose 5 (unit not given)"}, "arterial pressure": {"tested_on": "arterial pressure", "assay": "Effect on the arterial pressure in narcotized cats", "assay_type": "in vivo", "description": "as §1, §2, §3"}, "[7]": {"tested_on": "hemodynamic effects of noradrenaline", "assay": "Effect on vegetative responses: noradrenaline", "assay_type": "in vivo, cats", "conditions": "noradrenaline 1 μg/kg", "description": "as §1, §2, §3"}, "[8]": {"tested_on": "hemodynamic effects of acetylcholine", "assay": "Effect on vegetative responses: acetylcholine", "assay_type": "in vivo, cats", "conditions": "dose \"-10\" [sic] (unit not given); acetylcholine 0.1 μg/kg", "description": "as §1, §2, §3"}, "[9]": {"conditions": "after four-days p.o. course, benzyl 40 mg/kg, allyl 50 mg/kg, nifedipine dose not given"}, "[10]": {"conditions": "p.o. once a day, benzyl 40 mg/kg, allyl 50 mg/kg, nifedipine dose not given"}, "[11]": {"conditions": "p.o., benzyl 40 mg/kg, allyl 50 mg/kg, nifedipine dose not given"}, "[12]": {"conditions": "30 minutes, 50 mg/kg i.p. (nifedipine 1 mg/kg i.p.)"}, "[13]": {"conditions": "1 hour, 50 mg/kg i.p. (nifedipine 1 mg/kg i.p.)"}, "[14]": {"conditions": "2 hours, 50 mg/kg i.p. (nifedipine 1 mg/kg i.p.)"}, "[15]": {"conditions": "4 hours, 50 mg/kg i.p. (nifedipine 1 mg/kg i.p.)"}, "[16]": {"conditions": "dose \"-10\" [sic] (unit not given)"}}}
{"smiles": "C=CC[N+](C)(C)NCCC(=O)[O-]", "note": "[3-(2,2-dimethyl-2-allylhydrazinium)propionate semihydrate]", "values": [{"measurement": "Hemodynamic effect, Neoepinephrine", "setting": "[1]; dose 5 (unit not given)", "value": -20, "unit": "%"}, {"measurement": "Systolic arterial pressure, 5th day", "setting": "[2]; [9]", "value": 126, "unit": "mm Hg"}, {"measurement": "Systolic arterial pressure, 8th day", "setting": "[2]; [9]", "value": 168, "unit": "mm Hg"}, {"measurement": "Systolic arterial pressure, 10th day", "setting": "[2]; [9]", "value": 175, "unit": "mm Hg"}, {"measurement": "Systolic arterial pressure, 2nd day after administration", "setting": "[2]; p.o. once a day, allyl 50 mg/kg, nifedipine dose not given", "value": 132.8, "unit": "mm Hg"}, {"measurement": "Systolic arterial pressure, 1st day after administration", "setting": "[2]; p.o. once a day, benzyl 40 mg/kg (initial 195.8), allyl 50 mg/kg (initial 176.6), nifedipine dose not given (initial 184.0)", "value": 150.6, "unit": "mm Hg"}, {"measurement": "Systolic arterial pressure, 2nd day before administration", "setting": "[2]; [10]", "value": 166.8, "unit": "mm Hg"}, {"measurement": "Systolic arterial pressure, 3rd day after administration", "setting": "[2]; [10]", "value": 118, "unit": "mm Hg"}, {"measurement": "Systolic arterial pressure, 4th day after administration", "setting": "[2]; [10]", "value": 118.6, "unit": "mm Hg"}, {"measurement": "Systolic arterial pressure, 4th day before administration", "setting": "[2]; [10]", "value": 129, "unit": "mm Hg"}, {"measurement": "Percent in parentheses (change of systolic pressure from initial), 2nd day after administration", "setting": "[2]; p.o., allyl 50 mg/kg, nifedipine dose not given", "value": 25, "unit": "%"}, {"measurement": "Percent in parentheses (change of systolic pressure from initial), 1st day after administration", "setting": "[2]; [11]", "value": 15, "unit": "%"}, {"measurement": "Percent in parentheses (change of systolic pressure from initial), 2nd day before administration", "setting": "[2]; [11]", "value": 6, "unit": "%"}, {"measurement": "Percent in parentheses (change of systolic pressure from initial), 3rd day after administration", "setting": "[2]; [11]", "value": 33, "unit": "%"}, {"measurement": "Percent in parentheses (change of systolic pressure from initial), 4th day after administration", "setting": "[2]; [11]", "value": 33, "unit": "%"}, {"measurement": "Percent in parentheses (change of systolic pressure from initial), 4th day before administration", "setting": "[2]; [11]", "value": 27, "unit": "%"}, {"measurement": "Percent in parentheses (change of systolic pressure from initial), 5th day", "setting": "[2]; [11]", "value": 29, "unit": "%"}, {"measurement": "Percent in parentheses (change of systolic pressure from initial), 8th day", "setting": "[2]; [11]", "value": 5, "unit": "%"}, {"measurement": "Relative toxicity with respect to quinidine (LD50 / LD50 of quinidine)", "setting": "white mice", "value": 67.9}, {"measurement": "LD50 at 336 h", "setting": "[3]", "value": 10600, "unit": "mg/kg"}, {"measurement": "Dose of calcium chloride causing arrhythmia", "setting": "[4]; compound dose 5 mg/kg i.p.", "value": 99.6}, {"measurement": "Dose of calcium chloride causing heart arrest", "setting": "[4]; compound dose 5 mg/kg i.p.", "value": 118.0}, {"measurement": "Dose of calcium chloride causing arrhythmia", "setting": "[4]; compound dose 25 mg/kg i.p.", "value": 95.2}, {"measurement": "Dose of calcium chloride causing heart arrest", "setting": "[4]; compound dose 25 mg/kg i.p.", "value": 103.0}, {"measurement": "Systolic arterial pressure", "setting": "[5]; 3 hours after single p.o.", "value": 153, "unit": "mm Hg"}, {"measurement": "Systolic arterial pressure, percent in parentheses (decrease from initial)", "setting": "[5]; 3 hours after single p.o.", "value": 17, "unit": "%"}, {"measurement": "Systolic arterial pressure", "setting": "[5]; 5 hours after single p.o.", "value": 155, "unit": "mm Hg"}, {"measurement": "Systolic arterial pressure, percent in parentheses (decrease from initial)", "setting": "[5]; 5 hours after single p.o.", "value": 16, "unit": "%"}, {"measurement": "Systolic arterial pressure", "setting": "[5]; 24 hours after single p.o.", "value": 170, "unit": "mm Hg"}, {"measurement": "Systolic arterial pressure, percent in parentheses (decrease from initial)", "setting": "[5]; 24 hours after single p.o.", "value": 8, "unit": "%"}, {"measurement": "Average variation of the diastolic arterial pressure", "setting": "[6]; [12]", "value": "-10 % of the initial"}, {"measurement": "Average variation of the systolic arterial pressure", "setting": "[6]; [12]", "value": "-12 % of the initial"}, {"measurement": "Average variation of the diastolic arterial pressure", "setting": "[6]; [13]", "value": "-23 % of the initial"}, {"measurement": "Average variation of the systolic arterial pressure", "setting": "[6]; [13]", "value": "-12 % of the initial"}, {"measurement": "Average variation of the diastolic arterial pressure", "setting": "[6]; [14]", "value": "-29 % of the initial"}, {"measurement": "Average variation of the systolic arterial pressure", "setting": "[6]; [14]", "value": "-18 % of the initial"}, {"measurement": "Average variation of the diastolic arterial pressure", "setting": "[6]; [15]", "value": "-31 % of the initial"}, {"measurement": "Average variation of the systolic arterial pressure", "setting": "[6]; [15]", "value": "-14 % of the initial"}, {"measurement": "Average variation of the diastolic arterial pressure", "setting": "[6]; 24 hours, 50 mg/kg i.p.", "value": "-7 % of the initial"}, {"measurement": "Average variation of the systolic arterial pressure", "setting": "[6]; 24 hours, 50 mg/kg i.p.", "value": "-3 % of the initial"}, {"measurement": "Hemodynamic effect, Angiotension", "setting": "Angiotension", "value": -70, "unit": "%"}]}
{"smiles": "CCCCCCCCCCCCCCCC[N+](C)(C)NCCC(=O)[O-]", "note": "[3-(2,2-dimethyl-2-hexadecylhydrazinium)propionate]", "values": [{"measurement": "Hemodynamic effect, Neoepinephrine", "setting": "[1]; dose 3 (unit not given)", "value": -10, "unit": "%"}, {"measurement": "Hemodynamic effect, Neoepinephrine", "setting": "[1]; [16]", "value": -30, "unit": "%"}, {"measurement": "Variation of arterial pressure", "setting": "arterial pressure; dose 3 (unit not given)", "value": -5, "unit": "%"}, {"measurement": "Variation of arterial pressure", "setting": "arterial pressure; [16]", "value": -3, "unit": "%"}, {"measurement": "Relative toxicity with respect to quinidine (LD50 / LD50 of quinidine)", "setting": "white mice", "value": 9.3}, {"measurement": "LD50 at 336 h", "setting": "[3]", "value": 1450, "unit": "mg/kg"}, {"measurement": "Hemodynamic effect, Noradrenaline", "setting": "[7]; dose 3 (unit not given)", "value": -15, "unit": "%"}, {"measurement": "Hemodynamic effect, Noradrenaline", "setting": "[7]; [16]", "value": -80, "unit": "%"}, {"measurement": "Dose of calcium chloride causing arrhythmia", "setting": "[4]; compound dose 5 mg/kg i.p.", "value": 130.5}, {"measurement": "Dose of calcium chloride causing heart arrest", "setting": "[4]; compound dose 5 mg/kg i.p.", "value": 140.6}, {"measurement": "Dose of calcium chloride causing arrhythmia", "setting": "[4]; compound dose 25 mg/kg i.p.", "value": 102.7}, {"measurement": "Dose of calcium chloride causing heart arrest", "setting": "[4]; compound dose 25 mg/kg i.p.", "value": 124.5}, {"measurement": "Variation of the effect of acetylcholine", "setting": "[8]", "value": -10, "unit": "%"}]}
